Reference: the NIST ThermoML archive (doi:10.1016/j.jct.2013.04.001)

Legend:
[1] = wn = mass fraction of the nth substance listed; conditions: 101 kPa, Liquid; for mass density: Pycnometric method; for viscosity: Capillary tube (Ostwald / Ubbelohde) method
[2] = 101 kPa, Liquid, Capillary tube (Ostwald / Ubbelohde) method
[3] = mn = molality of the nth substance listed, in mol/kg; conditions: 101 kPa, Liquid, m2 = 0; for viscosity: Capillary tube (Ostwald / Ubbelohde) method

O=C[C@H](O)[C@@H](O)[C@H](O)CO [D-xylose] + O
[1]
Conditions	mass density, w1 = 0.025 [kg/m3]	mass density, w1 = 0.05 [kg/m3]	viscosity, w1 = 0.025 [mPa·s]	viscosity, w1 = 0.05 [mPa·s]
293.15 K	1007.24	1015.93	–	–
298.15 K	1005.63	1014.27	0.9096	0.964
303.15 K	1004.03	1012.62	0.8077	0.8547
308.15 K	1002.43	1010.96	0.7269	0.7637
313.15 K	1000.84	1009.31	0.6571	0.6869
318.15 K	999.23	1007.66	0.5992	0.6253

O=C[C@H](O)[C@@H](O)[C@@H](O)CO [L-arabinose] + O
[1]
Conditions	mass density, w1 = 0.025 [kg/m3]	mass density, w1 = 0.05 [kg/m3]	viscosity, w1 = 0.025 [mPa·s]	viscosity, w1 = 0.05 [mPa·s]
293.15 K	1007.35	1016.09	–	–
298.15 K	1005.77	1014.44	0.9141	0.9695
303.15 K	1004.18	1012.79	0.8116	0.8573
308.15 K	1002.6	1011.13	0.7304	0.7658
313.15 K	1001.01	1009.46	0.6591	0.689
318.15 K	999.43	1007.8	0.6006	0.6295

O [water]
[2]
Conditions	viscosity [mPa·s]
298.15 K	0.8903
303.15 K	0.7973
308.15 K	0.719
313.15 K	0.6526
318.15 K	0.5972

O [water] + N=C(N)NCCC[C@H](N)C(=O)O
[3]
Conditions	viscosity [mPa·s]
298.15 K	0.8903
303.15 K	0.7973
308.15 K	0.719
313.15 K	0.6526
318.15 K	0.5972

Conditions	mass density [kg/m3]
[3], 308.15 K, Pycnometric method	994.07
